Consider one compound from publication PMC12434536, “Radiosynthesis and Preclinical Evaluation of a Carbon-11 Labeled Phosphodiesterase 7 Inhibitor for PET Neuroimaging” (ACS Medicinal Chemistry Letters, 2025).

Read-outs that look alike come from different tables or passages of the source.

In data set [1] the test system is CYP2C9, CYP2C19, CYP2D6, CYP3A4. As to the kind of experiment: CYP450 isoform inhibition profiling, other isoforms. The data set is classed as in vitro ADME. The note with it: all isoforms except CYP1A2; read-out: IC50 against the other CYP450 isoforms. On the procedure:
page 5: protein-ligand complex were saved and were then loaded into Schrödinger Maestro to generate the ligand interaction plot. In vitro inhibitory assay to PDE7 of compound 27 and selectivity to other PDEs Functional activity of target compound 27 for inhibition of PDE7A activity and the selectivity over other PDE isozymes ([…], and 10A) were evaluated by Eurofins Panlabs Discovery Services and Reaction Biology Corp., respectively. Human recombinant enzymes were used for the assays. The inhibitory assays were performed and calculated in duplicate at 3 μM. If the inhibition percentage was less […] duplicate. CYP450 isoform metabolism and in vitro safety profiling The inhibitory constant of compound 26 toward cytochrome P450-dependent metabolic pathways was determined for individual CYP isoform (CYP1A2, CYP2C9, CYP2C19, CYP2D6, and CYP3A4). Reference inhibitors were included as positive controls. A 10 μM solution of compound 27 was used for initial screening. If the inhibition percentage was less than 50%, the experiment was stopped. […] gradient concentrations of compound 27 were used for IC 50 determination. The P450 reactions were detected at Ext/Em: 405 nm/460 nm (530 nm/605 nm for CYP2C9) in a S3 page 6: […] IC50 curves were plotted using a non-linear regression model with Graphpad Prism 6. […] Plasma and brain samples were quantified by LC-MS/MS method. […]

In data set [2] the test system is PDE7. Nature of the data set: PET imaging in rats (baseline and self-blocking). The data set is classed as in vivo, Sprague-Dawley rats. The settings on record: SD rats, self-blocking, 1 mg/kg. On the procedure:
page 10: All animal experiments were approved by the Institutional Animal Care and Use Committee of Massachusetts General Hospital or the National Institute of Radiological Sciences (Japan). C57BL/6 mice (female; 8 weeks, 20-25 g) and Sprague-Dawley rats (male; 8-9 weeks; 264-310 g) were kept on a 12 h light/12 h dark cycle and were allowed food and water ad libitum. Rodent PET scans were carried out using a […] (Sofie Biosciences, Culver, CA, USA) or a Siemens Inveon PET/CT system. Animals were kept under anesthesia using 1-2% (v/v) isoflurane in oxygen during the scan. The radiotracer (1.85 MBq for mice; 42-53 MBq for rats) was injected into the tail vein via a preinstalled catheter. A dynamic scan in 3D list mode was acquired for 60 min. The PET dynamic images were reconstructed using the manufacturer's acquisition software. Volumes of interest, including whole brain, cortex, striatum, hippocampus, thalamus and cerebellum were placed using AMIDE / PMOD software. The radioactivity was decay-corrected and expressed as standardized uptake value (SUV = radioactivity per mL tissue / injected radioactivity × bodyweight). S8

A short description of data set [3]: Pharmacokinetics in plasma and brain (NeuroPK study). Type of data set: in vivo, Sprague-Dawley rats. How it is done:
Pharmacokinetics in Plasma and Brain (NeuroPK study)
Nine male wildtype Sprague Dawley rats were administered a bolus injection containing compound 27 in saline (1 mg/kg, 2 mL/kg) via the tail vein. Blood samples (approximately 120 µL) were harvested under light isoflurane anesthesia from a set of three rats at 0.08, 0.25, and 1 hr. Blood and brain samples were collected at 5, […] and 60 min. Following centrifugation of blood samples, the resulting plasma supernatant was stored at -70 ± 10 °C till further analysis. Brain samples were homogenized using ice-cold phosphate buffer saline (pH 7.4) and homogenates were stored below -70 ± 10 °C until further analysis. Total homogenate volume was three times the brain weight. Plasma and brain samples were quantified by LC-MS/MS method. The plasma and brain concentration-time data of compound 27 was used for pharmacokinetic analysis. […]

Data set [4] concerns the target T1, HEK293-PDE7B recombinant cell lines (Homo sapiens, UniProt Q9NP56).
T1 construct: host or cells: HEK293
As to the kind of experiment: In vitro cell uptake and blocking of [11C]27. The data set is classed as cell-based. The note with it: blocker 1 μM, 60 min incubation, PDE7B overexpressing HEK293 cells, n = 4. On the procedure: Control study: HEK293-PDE7B Recombinant cells (catalog#60412, BPS Bioscience) and HEK293 control cells (catalog# CRL-1573, ATCC) – both in logarithmic growth phase – were plated in a 24 well plate (2 × 10^5 cells per well) and cultured overnight. After 24 hr, each well was added 2 μCi of [ 11C]27, and incubated at 37 °C for 30 min or 60 min. The radioactive medium was aspirated and collected in a tube. The residual cells were washed twice with PBS, and then collected in the same tube. The cells were lysed with 1 N NaOH (200 μL) and washed twice with PBS, all the resulting solutions were collected in one tube.
The radioactivity in the collected supernatant and cell lysis buffer (600 μL/tube) was measured using a Cobra Model 5002/5003 gamma counter, respectively.
Blocking study: HEK293-PDE7B cells in logarithmic growth phase were plated in 24 well plate (2 × 10^5 cells per well) and cultured overnight. After 24 h, each well was added 2 μCi of [11C]27 with or without unlabeled reference compound 27 or BRL50481, respectively. The resulting culture medium contained 2 μCi of [ 11C]27, 1 µM of unlabeled compound 27 or BRL50481, and 5% DMSO. Cells were incubated at 37 °C for 60 min and samples were collected as described for the control study. The cell uptake was calculated according to the following eq.: cell uptake% = A lysis buffer/(A lysis buffer+Asupernate) (n = 4)

The test system of data set [5] is PDE7. As to the kind of experiment: PET imaging in nonhuman primates (baseline and self-blocking). Type of data set: in vivo, Cynomolgus monkeys. The note with it: monkeys, self-blocking, 0.4 or 1 mg/kg.
Description: Cynomolgus monkeys used for PET/CT scan were deprived of food for 12h but allowed to drink water at any time. Animals (Male, bodyweight 5.0-5.2 kg) were anesthetized with ketamine, placed into the scanner (GE Discovery Elite 690, USA), and maintained with 2% isoflurane and 98% oxygen. A solution of [11C]27 (6.24–9.84 mCi) was injected into the monkey via a venous catheter, followed by a dynamic PET scan. For the blocking study, the blocking reagent reference compound 27 (0.4 or 1.0 mg/kg, iv) was used, followed by the injection of [11C]27. Time-activity curves of each brain region were extracted from the corresponding VOIs and brain uptake was decay-corrected and expressed as SUV. biodistribution studies in miceWhole-body ex vivo
Setting [6] is: 5 min, single iv 1 mg/kg, male Sprague-Dawley rats, n = 3, 1 mg/kg.

T1 sequence (Q9NP56 whole entry): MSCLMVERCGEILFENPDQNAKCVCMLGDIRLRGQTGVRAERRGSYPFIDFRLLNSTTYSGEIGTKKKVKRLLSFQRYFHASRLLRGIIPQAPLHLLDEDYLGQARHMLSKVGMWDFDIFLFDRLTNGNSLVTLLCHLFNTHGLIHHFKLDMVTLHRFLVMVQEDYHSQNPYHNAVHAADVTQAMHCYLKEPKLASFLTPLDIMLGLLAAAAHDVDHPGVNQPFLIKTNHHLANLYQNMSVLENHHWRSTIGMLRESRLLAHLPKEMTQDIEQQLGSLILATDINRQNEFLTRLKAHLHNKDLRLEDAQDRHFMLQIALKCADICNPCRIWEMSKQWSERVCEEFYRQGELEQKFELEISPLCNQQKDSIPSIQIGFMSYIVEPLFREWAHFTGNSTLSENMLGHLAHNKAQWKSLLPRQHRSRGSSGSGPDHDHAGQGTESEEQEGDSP

With `COc1ccc(Cl)c2c1C1(CCCCC1)NC(=O)N2` [Compound 27], the IC50 at 80 min in data set [1] is at least 10 µM. Moreover, the “effect of pretreatment on [11C]27 brain uptake” value in the data set with PDE7 [2] is given as “marginally reduced brain uptake”. This compound displayed a brain concentration mean in data set [3] (setting [6]) of 3316.17 ng/g. Besides, the plasma concentration mean in data set [3] (setting [6]) was 712.49 ng/mL; in data set [3] (60 min, single iv 1 mg/kg, male Sprague-Dawley rats, n = 3, 1 mg/kg) it was 39.39 ng/mL. In data set [3] (all measured time points (5-60 min), SD rats, 1 mg/kg iv, 1 mg/kg), the “brain-to-plasma ratios (Kp)” value is recorded as above 3. Further, the “fraction of the compound remaining in the brain” value in data set [3] (last measured time point (60 min), relative to 5 min peak, rats) was “less than 5%”. The Kp at 5 min in data set [3] (male, Sprague-Dawley, rat, brain, iv, 1 mg/kg, 5 min, single iv 1 mg/kg, male Sprague-Dawley rats, n = 3, read-out: Kp (brain-to-plasma ratio) mean) came to 4.76. Also, in data set [3] (male, Sprague-Dawley, rat, brain, iv, 1 mg/kg, 25 min, single iv 1 mg/kg, male Sprague-Dawley rats, n = 3, read-out: Kp (brain-to-plasma ratio) mean), the Kp at 25 min was found to be 4. The Kp at 1 h in data set [3] (male, Sprague-Dawley, rat, brain, iv, 1 mg/kg, 60 min, single iv 1 mg/kg, male Sprague-Dawley rats, n = 3, read-out: Kp (brain-to-plasma ratio) mean) came out at 3.35. In data set [3] (male, Sprague-Dawley, rat, brain, iv, 1 mg/kg, all measured time points (5-60 min), SD rats, 1 mg/kg iv, read-out: brain-to-plasma ratios (Kp)), the Kp was 3 to 5. In addition, the concentration at 5 min turned out to be 3320 ± 378 ng/g in data set [3] (rat, brain, 5 min, single iv 1 mg/kg, male Sprague-Dawley rats, n = 3, read-out: brain concentration mean) and 712 ± 153 ng/mL in data set [3] (rat, plasma, 5 min, single iv 1 mg/kg, male Sprague-Dawley rats, n = 3, read-out: plasma concentration mean). The concentration at 25 min was 876 ng/g in data set [3] (rat, brain, 25 min, single iv 1 mg/kg, male Sprague-Dawley rats, n = 3, read-out: brain concentration mean) and 229 ng/mL in data set [3] (rat, plasma, 25 min, single iv 1 mg/kg, male Sprague-Dawley rats, n = 3, read-out: plasma concentration mean). Besides, the concentration at 60 min in data set [3] (rat, brain, 60 min, single iv 1 mg/kg, male Sprague-Dawley rats, n = 3, read-out: brain concentration mean) was determined as 132 ng/g; in data set [3] (rat, plasma, 60 min, single iv 1 mg/kg, male Sprague-Dawley rats, n = 3, read-out: plasma concentration mean) it was 39.4 ± 4.44 ng/mL. In addition, the “blockade of [11C]27 cell uptake” value in data set [4] is listed as “ca. 90%”. Moreover, in the data set on PDE7 [5], the “effect of pretreatment on [11C]27 uptake in all assessed brain regions” value is reported as “moderately reduced”.
